In patent publication US20200231638A1, “STABILIZED ANTI-MICROBIAL PEPTIDES” (priority 2015, published 2020):
Bridge positions count the residues as written; N and C are the ends. Square brackets hold non-standard residues; d marks the D form. Peptide text beside a SMILES is read from it. Hyp = O=C(O)[C@@H]1C[C@@H](O)CN1; R8 = C=CCCCCCC[C@@](C)(N)C(=O)O; S5 = C=CCCC[C@](C)(N)C(=O)O; Nle = CCCC[C@H](N)C(=O)O

Assays:
S. aureus = assay type: cell-based, Staphylococcus aureus
Method in brief: (§1)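 Microdilution MIC test in polyanion-depleted MHB, with a final inoculum of 5×10^5 CFU/ml and 20-24 h incubation at 37° C.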

E. coli = assay type: cell-based, Escherichia coli
Method in brief: as §1

P. aeruginosa = assay type: cell-based, Pseudomonas aeruginosa
Method in brief: as §1

B. cereus = assay type: cell-based, Bacillus cereus
Method in brief: as §1

human red blood cells = assay type: cell-based; details: for % Hemolysis at 25 μg/ml: red cells of human, 1 h
Method in brief: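 Hemolysis expressed as absorbance of released hemoglobin (570 nm) normalized between untreated and 1% Triton-X100 controls, with MHC taken as peptide concentration giving under 1% release. Peptide dilutions were exposed for 1 h at 37° C to a 1% (v/v) suspension of washed human red cells in PBS.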

Compound | MIC S. aureus (S. aureus) | MIC E. coli (E. coli) | MIC P. aeruginosa (P. aeruginosa) | MIC B. cereus (B. cereus) | % Hemolysis at 25 μg/ml (human red blood cells) | hemolytic activity at concentrations 8-fold higher than its MIC (human red blood cells)
CCCC[C@H](NC(=O)[C@]1(C)CCCC=CCCC[C@](C)(NC(=O)[C@H](C)NC(=O)[C@H](CCCCN)NC(=O)[C@@H]2C[C@@H](O)CN2C(=O)[C@H](Cc2ccccc2)NC(=O)[C@H](CCCCN)NC(=O)[C@H](CCCCN)NC(=O)[C@H](C)NC(=O)[C@H](CO)NC(=O)[C@H](Cc2c[nH]cn2)NC(=O)[C@H](CC(C)C)NC(=O)[C@H](Cc2ccccc2)NC(=O)[C@H](CCCCN)NC(=O)CNC(=O)[C@@H](NC(=O)CN)[C@@H](C)CC)C(=O)N[C@@H](C(C)C)C(=O)NCC(=O)N[C@@H](CCC(=O)O)C(=O)N1)C(=O)N[C@@H](CC(N)=O)C(=O)N[C@@H](CO)C(N)=O [Mag(i + 4)15(G13&), GIGKFLHSAKKF&KAXVGEXBNS] (H-GIGKFLHSAKKF[Hyp]KA[S5]VGE[S5][Nle]NS-NH2; staple 16-20) | >50 µg/mL | 12.5 µg/mL | 50 µg/mL | >50 µg/mL | 1.3% | –
CCCC[C@H](NC(=O)[C@@H](NC(=O)[C@H](CCC(=O)O)NC(=O)CNC(=O)[C@@H](NC(=O)[C@H](Cc1ccccc1)NC(=O)[C@H](C)NC(=O)[C@H](CCCCN)NC(=O)CNC(=O)[C@H](Cc1ccccc1)NC(=O)[C@H](CCCCN)NC(=O)[C@H](CCCCN)NC(=O)[C@]1(C)CCCC=CCCCCCC[C@@](C)(NC(=O)CN)C(=O)NCC(=O)N[C@@H](CCCCN)C(=O)N[C@@H](Cc2ccccc2)C(=O)N[C@@H](CC(C)C)C(=O)N[C@@H](Cc2c[nH]cn2)C(=O)N[C@@H](CO)C(=O)N1)C(C)C)[C@@H](C)CC)C(=O)N[C@@H](CC(N)=O)C(=O)N[C@@H](CO)C(N)=O [Mag(i + 7)1] (H-G[R8]GKFLHS[S5]KKFGKAFVGEI[Nle]NS-NH2; staple 2-9 (inferred); N-terminus and C-terminus assumed) | 12.5 µg/mL | 3.1 µg/mL | 3.1 µg/mL | 3.1 µg/mL | 49.9% | –
CCCC[C@H](NC(=O)[C@]1(C)CCCC=CCCC[C@](C)(NC(=O)[C@H](C)NC(=O)[C@H](CCCCN)NC(=O)CNC(=O)[C@H](Cc2ccccc2)NC(=O)[C@H](CCCCN)NC(=O)[C@H](CCCCN)NC(=O)[C@H](C)NC(=O)[C@H](CO)NC(=O)[C@H](Cc2c[nH]cn2)NC(=O)[C@H](CC(C)C)NC(=O)[C@H](Cc2ccccc2)NC(=O)[C@H](CCCCN)NC(=O)CNC(=O)[C@@H](NC(=O)CN)[C@@H](C)CC)C(=O)N[C@@H](C(C)C)C(=O)NCC(=O)N[C@@H](CCC(=O)O)C(=O)N1)C(=O)N[C@@H](CC(N)=O)C(=O)N[C@@H](CO)C(N)=O [Mag(i + 4)15] (H-GIGKFLHSAKKFGKA[S5]VGE[S5][Nle]NS-NH2; staple 16-20) | 12.5 µg/mL | 1.6 µg/mL | 6.2 µg/mL | 6.2 µg/mL | 11.9% | –
CCCC[C@H](NC(=O)[C@]1(C)CCCC=CCCC[C@](C)(NC(=O)[C@H](C)NC(=O)[C@H](CCCCN)NC(=O)CNC(=O)[C@H](Cc2ccccc2)NC(=O)[C@H](CCCCN)NC(=O)[C@H](CCCCN)NC(=O)[C@H](C)NC(=O)[C@H](CCCCN)NC(=O)[C@H](Cc2c[nH]cn2)NC(=O)[C@H](CC(C)C)NC(=O)[C@H](Cc2ccccc2)NC(=O)[C@H](CCCCN)NC(=O)CNC(=O)[C@@H](NC(=O)CN)[C@@H](C)CC)C(=O)N[C@@H](C(C)C)C(=O)NCC(=O)N[C@@H](CCC(=O)O)C(=O)N1)C(=O)N[C@@H](CC(N)=O)C(=O)N[C@@H](CO)C(N)=O [Mag(i + 4)15(S8K), GIGKFLHKAKKFGKAXVGEXBNS] (H-GIGKFLHKAKKFGKA[S5]VGE[S5][Nle]NS-NH2; staple 16-20) | 6.2 µg/mL | 1.6 µg/mL | 6.2 µg/mL | 3.1 µg/mL | 3.4% | –
CCCC[C@H](NC(=O)[C@]1(C)CCCC=CCCC[C@](C)(NC(=O)[C@H](C)NC(=O)[C@H](CCCCN)NC(=O)CNC(=O)[C@H](Cc2ccccc2)NC(=O)[C@H](CCCCN)NC(=O)[C@H](CCCCN)NC(=O)[C@H](C)NC(=O)[C@H](CO)NC(=O)[C@H](Cc2c[nH]cn2)NC(=O)[C@H](CC(C)C)NC(=O)[C@H](Cc2ccccc2)NC(=O)[C@H](CCCCN)NC(=O)CNC(=O)[C@@H](NC(=O)[C@@H](N)CCCCN)[C@@H](C)CC)C(=O)N[C@@H](C(C)C)C(=O)NCC(=O)N[C@@H](CCC(=O)O)C(=O)N1)C(=O)N[C@@H](CC(N)=O)C(=O)N[C@@H](CO)C(N)=O [Mag(i + 4)15(G1K), KIGKFLHSAKKFGKAXVGEXBNS] (H-KIGKFLHSAKKFGKA[S5]VGE[S5][Nle]NS-NH2; staple 16-20) | 25 µg/mL | 1.6 µg/mL | 3.1 µg/mL | 12.5 µg/mL | 4.5% | –
CCCC[C@H](NC(=O)[C@]1(C)CCCC=CCCC[C@](C)(NC(=O)[C@H](C)NC(=O)[C@H](CCCCN)NC(=O)CNC(=O)[C@H](Cc2ccccc2)NC(=O)[C@H](CCCCN)NC(=O)[C@H](CCCCN)NC(=O)[C@H](CCCCN)NC(=O)[C@H](Cc2c[nH]cn2)NC(=O)[C@H](Cc2c[nH]cn2)NC(=O)[C@]2(C)CCCC=CCCC[C@](C)(NC(=O)CN)C(=O)NCC(=O)N[C@@H](CCCCN)C(=O)N[C@@H](Cc3ccccc3)C(=O)N2)C(=O)N[C@@H](C(C)C)C(=O)N[C@@H](Cc2c[nH]cn2)C(=O)N[C@@H](CCC(=O)O)C(=O)N1)C(=O)N[C@@H](CCC(=O)O)C(=O)N[C@@H](CO)C(N)=O [Mag(i + 4)1, 15(S8H, A9K, G18H, N21E)] (H-G[S5]GKF[S5]HHKKKFGKA[S5]VHE[S5][Nle]ES-NH2; staple 2-6, 16-20; N-terminus assumed) | >50 µg/mL | 3.1 µg/mL | 12.5 µg/mL | 50 µg/mL | 4.2% | –
CCCC[C@H](NC(=O)[C@]1(C)CCCC=CCCC[C@](C)(NC(=O)[C@H](C)NC(=O)[C@H](CCCCN)NC(=O)CNC(=O)[C@H](Cc2ccccc2)NC(=O)[C@H](CCCCN)NC(=O)[C@H](CCCCN)NC(=O)[C@H](CCCCN)NC(=O)[C@H](CO)NC(=O)[C@H](Cc2c[nH]cn2)NC(=O)[C@]2(C)CCCC=CCCC[C@](C)(NC(=O)CN)C(=O)NCC(=O)N[C@@H](CCCCN)C(=O)N[C@@H](Cc3ccccc3)C(=O)N2)C(=O)N[C@@H](C(C)C)C(=O)NCC(=O)N[C@@H](CCC(=O)O)C(=O)N1)C(=O)N[C@@H](CC(N)=O)C(=O)N[C@@H](CO)C(N)=O [Mag(i + 4)1, 15(A9K), GXGKFXHSKKKFGKAXVGEXBNS] (H-G[S5]GKF[S5]HSKKKFGKA[S5]VGE[S5][Nle]NS-NH2; staple 2-6, 16-20) | 50 µg/mL | 1.6 µg/mL | 3.1 µg/mL | 25 µg/mL | 2.4% | little hemolytic activity
CCCC[C@H](NC(=O)[C@]1(C)CCCC=CCCC[C@](C)(NC(=O)[C@H](C)NC(=O)[C@H](CCCCN)NC(=O)CNC(=O)[C@H](Cc2ccccc2)NC(=O)[C@H](CCCCN)NC(=O)[C@H](CCCCN)NC(=O)[C@H](Cc2c[nH]cn2)NC(=O)[C@H](CO)NC(=O)[C@]2(C)CCCC=CCCC[C@](C)(NC(=O)[C@H](CCCCN)NC(=O)CN)C(=O)N[C@@H](CCCCN)C(=O)N[C@@H](Cc3ccccc3)C(=O)N[C@@H](CC(C)C)C(=O)N2)C(=O)N[C@@H](C(C)C)C(=O)N[C@@H](Cc2c[nH]cn2)C(=O)N[C@@H](CCC(=O)O)C(=O)N1)C(=O)N[C@@H](CCC(=O)O)C(=O)N[C@@H](CO)C(N)=O [Mag(i + 4)2, 15(I2X, A9H, G18H, N21E)] (H-GK[S5]KFL[S5]SHKKFGKA[S5]VHE[S5][Nle]ES-NH2; staple 3-7, 16-20) | 25 µg/mL | 3.1 µg/mL | 6.2 µg/mL | 6.2 µg/mL | 4.0% | –
CCCC[C@H](NC(=O)[C@]1(C)CCCC=CCCC[C@](C)(NC(=O)[C@H](C)NC(=O)[C@H](CCC(=O)O)NC(=O)CNC(=O)[C@H](Cc2ccccc2)NC(=O)[C@H](CCCCN)NC(=O)[C@H](CCCCN)NC(=O)[C@H](C)NC(=O)[C@H](CO)NC(=O)[C@H](Cc2c[nH]cn2)NC(=O)[C@H](CC(C)C)NC(=O)[C@H](Cc2ccccc2)NC(=O)[C@H](CCCCN)NC(=O)CNC(=O)[C@@H](NC(=O)CN)[C@@H](C)CC)C(=O)N[C@@H](C(C)C)C(=O)NCC(=O)N[C@@H](CCC(=O)O)C(=O)N1)C(=O)N[C@@H](CC(N)=O)C(=O)N[C@@H](CO)C(N)=O [Mag(i + 4)15(E14E), GIGKFLHSAKKFGEAXVGEXBNS] (H-GIGKFLHSAKKFGEA[S5]VGE[S5][Nle]NS-NH2; staple 16-20) | >50 µg/mL | 12.5 µg/mL | >50 µg/mL | 50 µg/mL | 3.3% | –
CCCC[C@H](NC(=O)[C@@H](NC(=O)[C@H](CCC(=O)O)NC(=O)CNC(=O)[C@@H](NC(=O)[C@H](Cc1ccccc1)NC(=O)[C@H](C)NC(=O)[C@H](CCCCN)NC(=O)CNC(=O)[C@H](Cc1ccccc1)NC(=O)[C@]1(C)CCCC=CCCCCCC[C@@](C)(NC(=O)CNC(=O)[C@@H](NC(=O)CN)[C@@H](C)CC)C(=O)N[C@@H](Cc2ccccc2)C(=O)N[C@@H](CC(C)C)C(=O)N[C@@H](Cc2c[nH]cn2)C(=O)N[C@@H](CO)C(=O)N[C@@H](C)C(=O)N[C@@H](CCCCN)C(=O)N1)C(C)C)[C@@H](C)CC)C(=O)N[C@@H](CC(N)=O)C(=O)N[C@@H](CO)C(N)=O [Mag(i + 7)3] (H-GIG[R8]FLHSAK[S5]FGKAFVGEI[Nle]NS-NH2; staple 4-11 (inferred); N-terminus and C-terminus assumed) | 12.5 µg/mL | 6.2 µg/mL | 25 µg/mL | 12.5 µg/mL | 52.5% | –
